Converted amounts (≈) assume the structure as drawn.
Key:
Format in all cases: cell-based
[1] = tested on: Enterobacter cloacae 963; experiment: Antibacterial activity, agar-dilution MIC, organism No. 24; conditions: Enterobacter cloacae, 963; Organism No. 24, bouillon-agar; read-out: Minimum Inhibitory Concentration
Text: (§1) Agar-dilution method was used for determination of the antibacterial activity and antifungal activity while using bouillon-agar culture medium, and the minimum inhibitory concentration of the specimen was expressed by μg/ml of the culture medium.

[2] = tested on: Salmonella paratyphi-A 1015; experiment: Antibacterial activity, agar-dilution MIC, organism No. 10; conditions: Salmonella enterica, PARATYPHI, read-out: Minimum Inhibitory Concentration
Text: as §1

[3] = tested on: Mycoplasma pneumoniae IID817; experiment: Antimycoplasmal activity, MIC by phenol red colour change, organism No. 28; conditions: Mycoplasma, IID817; Organism No. 28, PPLO broth + 1% glucose, 37° C.; read-out: Minimum Inhibitory Concentration (MIC)
Protocol: Mycoplasma pneumoniae IID817 was used as the test microorganism in a culture medium prepared by adding 1% of glucose to "PPLO broth (manufactured by Difco Co.) liquid culture medium" at 37° C. with phenol red as an indicator, thereby culturing the test microorganism.

[4] = tested on: Bacillus subtilis ATCC 6633; experiment: Antibacterial activity, agar-dilution MIC, organism No. 14; conditions: Bacillus subtilis, ATCC6633; Organism No. 14, bouillon-agar; read-out: Minimum Inhibitory Concentration
Text: as §1

[5] = tested on: Staphylococcus aureus FDA 209PJc-1; experiment: Antibacterial activity, agar-dilution MIC, organism No. 1; conditions: Staphylococcus aureus, FDA209PJC1; Organism No. 1, bouillon-agar; read-out: Minimum Inhibitory Concentration
Text: as §1

[6] = tested on: Pseudomonas aeruginosa PAO 1; experiment: Antibacterial activity, agar-dilution MIC, organism No. 17; conditions: Pseudomonas aeruginosa, PAO1; Organism No. 17, bouillon-agar; read-out: Minimum Inhibitory Concentration
Text: as §1

[7] = tested on: Proteus rettgeri IFO 3850; experiment: Antibacterial activity, agar-dilution MIC, organism No. 22; conditions: Providencia rettgeri, IFO3850; Organism No. 22, bouillon-agar; read-out: Minimum Inhibitory Concentration
Text: as §1

[8] = tested on: Candida albicans IAM 4905; experiment: Antifungal activity, agar-dilution MIC, organism No. 29; conditions: Candida albicans, IAM4905; Organism No. 29, bouillon-agar; read-out: Minimum Inhibitory Concentration
Text: as §1

[9] = tested on: Aspergillus niger IFO 6342; experiment: Antifungal activity, agar-dilution MIC, organism No. 30; conditions: Aspergillus niger, IFO6342; Organism No. 30, bouillon-agar; read-out: Minimum Inhibitory Concentration
Text: as §1

[10] = tested on: Salmonella enteritidis G 14; experiment: Antibacterial activity, agar-dilution MIC, organism No. 12; conditions: Salmonella enterica, ENTERITIDIS; Organism No. 12, bouillon-agar; read-out: Minimum Inhibitory Concentration
Text: as §1

[11] = tested on: Pseudomonas aeruginosa IFO 3445; experiment: Antibacterial activity, agar-dilution MIC, organism No. 15; conditions: Pseudomonas aeruginosa, IFO3445; Organism No. 15, bouillon-agar; read-out: Minimum Inhibitory Concentration
Text: as §1

[12] = tested on: Staphylococcus aureus MS 353; experiment: Antibacterial activity, agar-dilution MIC, organism No. 3; conditions: Staphylococcus aureus, MS353; Organism No. 3, bouillon-agar; read-out: Minimum Inhibitory Concentration
Text: as §1

[13] = tested on: Streptococcus pyogenes IFO 3340; experiment: Antibacterial activity, agar-dilution MIC, organism No. 26; conditions: Streptococcus pyogenes, IFO3340; Organism No. 26, bouillon-agar; read-out: Minimum Inhibitory Concentration
Text: as §1

[14] = tested on: Proteus vulgaris OX-19; experiment: Antibacterial activity, agar-dilution MIC, organism No. 20; conditions: Proteus vulgaris, OX19; Organism No. 20, bouillon-agar; read-out: Minimum Inhibitory Concentration
Text: as §1

[15] = tested on: Proteus mirabilis IFO 3849; experiment: Antibacterial activity, agar-dilution MIC, organism No. 19; conditions: Proteus mirabilis, IFO3849; Organism No. 19, bouillon-agar; read-out: Minimum Inhibitory Concentration
Text: as §1

[16] = tested on: Proteus vulgaris HX-19; experiment: Antibacterial activity, agar-dilution MIC, organism No. 21; conditions: Proteus vulgaris, HX19; Organism No. 21, bouillon-agar; read-out: Minimum Inhibitory Concentration
Text: as §1

[17] = tested on: Salmonella typhi 901; experiment: Antibacterial activity, agar-dilution MIC, organism No. 9; conditions: Salmonella enterica, TYPHI, read-out: Minimum Inhibitory Concentration
Text: as §1

[18] = tested on: Streptococcus faecium IFO 3826; experiment: Antibacterial activity, agar-dilution MIC, organism No. 27; conditions: Enterococcus faecium, IFO3826; Organism No. 27, bouillon-agar; read-out: Minimum Inhibitory Concentration
Text: as §1

[19] = tested on: Escherichia coli K12 C600 IAM 1264; experiment: Antibacterial activity, agar-dilution MIC, organism No. 6; conditions: Escherichia coli, IAM1264; Organism No. 6, bouillon-agar; read-out: Minimum Inhibitory Concentration
Text: as §1

[20] = tested on: Klebsiella pneumoniae PCI-602; experiment: Antibacterial activity, agar-dilution MIC, organism No. 7; conditions: Klebsiella pneumoniae, PCI602; Organism No. 7, bouillon-agar; read-out: Minimum Inhibitory Concentration
Text: as §1

[21] = tested on: Micrococcus luteus ATCC 9341; experiment: Antibacterial activity, agar-dilution MIC, organism No. 25; conditions: Micrococcus luteus, ATCC9341; Organism No. 25, bouillon-agar; read-out: Minimum Inhibitory Concentration
Text: as §1

[22] = tested on: Proteus morganii IFO 3848; experiment: Antibacterial activity, agar-dilution MIC, organism No. 18; conditions: Morganella morganii, IFO3848; Organism No. 18, bouillon-agar; read-out: Minimum Inhibitory Concentration
Text: as §1

[23] = tested on: Escherichia coli NIHJ-JC-2; experiment: Antibacterial activity, agar-dilution MIC, organism No. 5; conditions: Escherichia coli, NIHJJC2; Organism No. 5, bouillon-agar; read-out: Minimum Inhibitory Concentration
Text: as §1

[24] = tested on: Pseudomonas aeruginosa NCTC 10490; experiment: Antibacterial activity, agar-dilution MIC, organism No. 16; conditions: Pseudomonas aeruginosa, NCTC10490; Organism No. 16, bouillon-agar; read-out: Minimum Inhibitory Concentration
Text: as §1

[25] = tested on: Staphylococcus aureus Terajima; experiment: Antibacterial activity, agar-dilution MIC, organism No. 2; conditions: Staphylococcus aureus; Organism No. 2, bouillon-agar; read-out: Minimum Inhibitory Concentration
Text: as §1

[26] = tested on: Streptococcus pyogenes Cook; experiment: Antibacterial activity, agar-dilution MIC, organism No. 4; conditions: Streptococcus pyogenes; Organism No. 4, bouillon-agar; read-out: Minimum Inhibitory Concentration
Text: as §1

[27] = tested on: Enterobacter aerogenes ATCC 13048; experiment: Antibacterial activity, agar-dilution MIC, organism No. 23; conditions: Klebsiella aerogenes, ATCC13048; Organism No. 23, bouillon-agar; read-out: Minimum Inhibitory Concentration
Text: as §1

[28] = tested on: Salmonella typhimurium IID 971; experiment: Antibacterial activity, agar-dilution MIC, organism No. 8; conditions: Salmonella enterica; Organism No. 8, bouillon-agar; read-out: Minimum Inhibitory Concentration
Text: as §1

[29] = tested on: Salmonella shottmuelleri 8006; experiment: Antibacterial activity, agar-dilution MIC, organism No. 11; conditions: Salmonella, 8006; Organism No. 11, bouillon-agar; read-out: Minimum Inhibitory Concentration
Text: as §1

SMILES | MIC [1] [µg/mL] | MIC [2] [µg/mL] | MIC [3] [µg/mL] | MIC [4] [µg/mL] | MIC [5] [µg/mL] | MIC [6] [µg/mL] | MIC [7] [µg/mL] | MIC [8] [µg/mL] | MIC [9] [µg/mL] | MIC [10] [µg/mL] | MIC [11] [µg/mL] | MIC [12] [µg/mL] | MIC [13] [µg/mL] | MIC [14] [µg/mL] | MIC [15] [µg/mL] | MIC [16] [µg/mL] | MIC [17] [µg/mL] | MIC [18] [µg/mL] | MIC [19] [µg/mL] | MIC [20] [µg/mL] | also measured
[C-]#[N+]C12CC3(/C=C/C(=O)Nc4cccc(Cl)c4)OC3C1O2 (centres unmarked) [compound 41] | 50 (≈ 165 µM) | 0.78 (≈ 2.58 µM) | < 0.2 | 1.56 (≈ 5.15 µM) | 0.2 (≈ 0.661 µM) | > 200 | 3.13 (≈ 10.3 µM) | 0.8 (≈ 2.64 µM) | 1.56 (≈ 5.15 µM) | 3.13 (≈ 10.3 µM) | > 200 | 0.1 (≈ 0.33 µM) | 0.39 (≈ 1.29 µM) | 0.78 (≈ 2.58 µM) | > 200 | < 0.05 | 3.13 (≈ 10.3 µM) | 3.13 (≈ 10.3 µM) | 200 (≈ 661 µM) | < 0.05 | MIC [21]: < 0.05 µg/mL; MIC [22]: 0.1 µg/mL (≈ 0.33 µM); MIC [23]: > 200 µg/mL; MIC [24]: > 200 µg/mL; MIC [25]: 0.39 µg/mL (≈ 1.29 µM); MIC [26]: > 200 µg/mL; MIC [27]: > 200 µg/mL; MIC [28]: 3.13 µg/mL (≈ 10.3 µM); MIC [29]: 0.2 µg/mL (≈ 0.661 µM)
[C-]#[N+]C12CC3(/C=C/C(=O)Nc4ccccc4Cl)OC3C1O2 (centres unmarked) [compound 42] | > 200 | 6.25 (≈ 20.6 µM) | < 0.2 | 6.25 (≈ 20.6 µM) | 0.39 (≈ 1.29 µM) | > 200 | > 200 | 1.56 (≈ 5.15 µM) | 3.13 (≈ 10.3 µM) | 25 (≈ 82.6 µM) | > 200 | 0.39 (≈ 1.29 µM) | 1.56 (≈ 5.15 µM) | 3.13 (≈ 10.3 µM) | > 200 | 0.1 (≈ 0.33 µM) | 12.5 (≈ 41.3 µM) | 25 (≈ 82.6 µM) | > 200 | 0.78 (≈ 2.58 µM) | MIC [21]: < 0.05 µg/mL; MIC [22]: 3.13 µg/mL (≈ 10.3 µM); MIC [23]: > 200 µg/mL; MIC [24]: > 200 µg/mL; MIC [25]: 1.56 µg/mL (≈ 5.15 µM); MIC [26]: > 200 µg/mL; MIC [27]: > 200 µg/mL; MIC [28]: 25 µg/mL (≈ 82.6 µM); MIC [29]: 3.13 µg/mL (≈ 10.3 µM)
[C-]#[N+]C12CC3(/C=C/C(=O)Nc4ccc(F)cc4)OC3C1O2 (centres unmarked) [compound 43] | 12.5 (≈ 43.7 µM) | 0.78 (≈ 2.72 µM) | < 0.2 | 6.25 (≈ 21.8 µM) | 0.78 (≈ 2.72 µM) | > 200 | 1.56 (≈ 5.45 µM) | 0.39 (≈ 1.36 µM) | 1.56 (≈ 5.45 µM) | 3.13 (≈ 10.9 µM) | > 200 | 1.56 (≈ 5.45 µM) | 3.13 (≈ 10.9 µM) | 0.39 (≈ 1.36 µM) | 12.5 (≈ 43.7 µM) | 0.39 (≈ 1.36 µM) | 1.56 (≈ 5.45 µM) | 12.5 (≈ 43.7 µM) | 25 (≈ 87.3 µM) | 0.78 (≈ 2.72 µM) | MIC [21]: 0.2 µg/mL (≈ 0.699 µM); MIC [22]: 0.39 µg/mL (≈ 1.36 µM); MIC [23]: 6.25 µg/mL (≈ 21.8 µM); MIC [24]: > 200 µg/mL; MIC [25]: 3.13 µg/mL (≈ 10.9 µM); MIC [26]: 25 µg/mL (≈ 87.3 µM); MIC [27]: > 200 µg/mL; MIC [28]: 6.25 µg/mL (≈ 21.8 µM); MIC [29]: 0.78 µg/mL (≈ 2.72 µM)
[C-]#[N+]C12CC3(/C=C/C(=O)Nc4ccc(Br)cc4)OC3C1O2 (centres unmarked) [compound 44] | > 200 | 3.13 (≈ 9.02 µM) | < 0.2 | 25 (≈ 72 µM) | 0.39 (≈ 1.12 µM) | > 200 | 100 (≈ 288 µM) | 0.39 (≈ 1.12 µM) | 1.56 (≈ 4.49 µM) | 50 (≈ 144 µM) | > 200 | 0.39 (≈ 1.12 µM) | 12.5 (≈ 36 µM) | 6.25 (≈ 18 µM) | > 200 | 0.1 (≈ 0.288 µM) | 12.5 (≈ 36 µM) | 200 (≈ 576 µM) | > 200 | 0.2 (≈ 0.576 µM) | MIC [21]: < 0.05 µg/mL; MIC [22]: 3.13 µg/mL (≈ 9.02 µM); MIC [23]: > 200 µg/mL; MIC [24]: > 200 µg/mL; MIC [25]: 3.13 µg/mL (≈ 9.02 µM); MIC [26]: > 200 µg/mL; MIC [27]: > 200 µg/mL; MIC [28]: 50 µg/mL (≈ 144 µM); MIC [29]: 3.13 µg/mL (≈ 9.02 µM)

Reference: patent US4684664A, “Derivatives of β-(4-isocyano-1,2,3,4-diepoxycyclopentyl) acrylic acid” (Kureha Kagaku Kogyo Kabushiki Kaisha, priority 1984, dated 1987)
